Assays:
Cx36 [1] = target: T1, Cx36 (Homo sapiens, UniProt Q9UKL4); assay: cryo-EM structure of the complex; assay type: binding; conditions: detergent, pore pocket between TM1 and TM2 at interface of two monomers
T1 construct: gene GJD2; purified in detergent; gap junction channel of docked hexameric hemichannels
T1 sequence (Q9UKL4 1-321): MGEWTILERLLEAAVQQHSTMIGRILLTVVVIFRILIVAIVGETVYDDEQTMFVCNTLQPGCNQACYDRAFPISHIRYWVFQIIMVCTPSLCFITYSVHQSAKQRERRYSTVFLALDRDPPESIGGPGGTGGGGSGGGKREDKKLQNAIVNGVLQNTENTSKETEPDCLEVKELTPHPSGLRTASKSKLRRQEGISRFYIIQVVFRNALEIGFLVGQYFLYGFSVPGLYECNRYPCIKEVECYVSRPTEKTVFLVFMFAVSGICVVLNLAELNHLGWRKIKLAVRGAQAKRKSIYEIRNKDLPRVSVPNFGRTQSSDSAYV

Cx36 [2] = target: T1, Cx36; assay: ligand binding assay with purified Cx36

Row | SMILES | cryo-EM structure of the complex (Cx36 [1]; 1 mM drug) | Kd (Cx36 [2]) [µM] | cryo-EM structure of the complex (Cx36 [1]; 1 mM racemic drug)
1 | C=C[C@H]1CN2CC[C@H]1C[C@@H]2[C@@H](O)c1ccnc2ccc(OC)cc12 [quinidine] | Cx36–quin, and Cx36–quid feature additional densities, corresponding to six bound drugs per Cx36 hexamer | 58 ± 9 | 
2 | C=C[C@H]1CN2CC[C@H]1C[C@H]2[C@H](O)c1ccnc2ccc(OC)cc12 [quinine] | Cx36–quin, and Cx36–quid feature additional densities, corresponding to six bound drugs per Cx36 hexamer | 29 ± 5.3 | 
3 | OC(c1cc(C(F)(F)F)nc2c(C(F)(F)F)cccc12)C1CCCCN1 (racemic) [mefloquine] |  | 10.4 ± 1.3 | although we used a racemic mixture of the drug, the high-resolution structure captured the S/R-enantiomer

— PMC11189382, “Structural basis of connexin-36 gap junction channel inhibition” (Cell Discovery, 2024)
